Earlier results, collected in publication PMC11220795 (Molecular Pharmaceutics, 2024).
Read-outs that look alike come from different tables or passages of the source.

Details: decadic logarithm of molar solubility in MCTs, cited from earlier work
[1] = ref Alsenz, J. and Kuentz, M., 2019
[2] = ref Alskär, L.C., Porter, C.J. and Bergström, C.A., 2016

| Compound | log10 S [M] [1] [M] | log10 S [M] [2] [M] |
| --- | --- | --- |
| COC1=CC(=O)C[C@@H](C)[C@]12Oc1c(Cl)c(OC)cc(OC)c1C2=O [griseofulvin] | -2.59 |  |
| CCCCN(CCCC)CCC(O)c1cc2c(Cl)cc(Cl)cc2c2cc(C(F)(F)F)ccc12 (centres unmarked) [halofantrine] |  | -0.70 |
| CCc1nc(N)nc(N)c1-c1ccc(Cl)cc1 [pyrimethamine] | -2.65 |  |
| CC(C)Cc1ccc(C(C)C(=O)O)cc1 (centres unmarked) [ibuprofen] | -0.82 |  |
| C[C@]12CC[C@H]3[C@@H](CCC4=CC(=O)CC[C@@]43C)[C@@H]1CC[C@@H]2O [testosterone] | -1.56 |  |
| CCCCNC(=O)NS(=O)(=O)c1ccc(C)cc1 [tolbutamide] | -1.85 |  |
| O=C1NC(=O)C(c2ccccc2)(c2ccccc2)N1 [phenytoin] | -3.00 |  |
| O=C(Nc1ccc([N+](=O)[O-])cc1Cl)c1cc(Cl)ccc1O [niclosamide] |  | -2.06 |
| CC(=O)OCC(=O)[C@@]1(O)CC[C@H]2[C@@H]3CCC4=CC(=O)CC[C@]4(C)[C@H]3[C@@H](O)C[C@@]21C [hydrocortisone acetate] | -3.54 |  |
| O=C(O)c1cc(/N=N/c2ccc(S(=O)(=O)Nc3ccccn3)cc2)ccc1O [sulfasalazine] | -4.24 |  |
| NS(=O)(=O)c1cc(C(=O)O)c(NCc2ccco2)cc1Cl [furosemide] | -3.18 |  |
| CC(=O)[C@H]1CC[C@H]2[C@@H]3CCC4=CC(=O)CC[C@]4(C)[C@H]3CC[C@]12C [progesterone] | -1.05 |  |
| COc1ccc2c(c1)c(CC(=O)OCC(=O)O)c(C)n2C(=O)c1ccc(Cl)cc1 [acemetacin] | -2.33 |  |
| CCN(CC)C(=S)SSC(=S)N(CC)CC [disulfiram] |  | -0.73 |
| COC(=O)Nc1nc2ccc(Sc3ccccc3)cc2[nH]1 [fenbendazole] |  | -3.20 |
| CCOc1nc2cccc(C(=O)OC(C)OC(=O)OC3CCCCC3)c2n1Cc1ccc(-c2ccccc2-c2nnn[nH]2)cc1 (centres unmarked) [candesartan cilexetil] |  | -2.93 |
| CC(=O)Oc1ccc(C(c2ccc(OC(C)=O)cc2)c2ccccn2)cc1 [bisacodyl] | -2.22 |  |
